Experimental data from US20100015164A1, “Compositions and Methods for Modulating Osteoblast Cell Differentiation and Bone Generation Through HIF-1a” (THE UAB RESEARCH FOUNDATION, priority 2005, published 2010).
“Also recorded” adds a separate entry of the source.

Tests used:
VEGF = VEGF mRNA expression by real time PCR in osteoblasts exposed to cobalt chloride; format: cell-based, mouse; conditions: 5, 10, or 50 ng/mL cobalt chloride, 3, 12, or 24 hours
Experimental: The osteoblasts were exposed to 5, 10, or 50 ng/mL of cobalt chloride. After, 3, 12, or 24 hours, cells were harvested and mRNA was collected. Real time PCR was performed with β-actin as control. […] Additionally, they lend support to the approach of using VEGF upregulation as assessed by real time PCR as a surrogate for HIF-1α activation in initial screening rather than the more time consuming approach of western blotting for HIF-1α.

HIF-1α [1] = conditions: in vitro and in vivo, published studies; cited from earlier work
HIF-1α [2] = test: Western blotting of nuclear protein for HIF-1α in primary osteoblasts exposed to cobalt; format: cell-based, mouse; conditions: primary osteoblast cultures; 5, 10, or 50 ng/ml cobalt; 0, 3, 6, 12, and 24 hours of exposure
From the text: The class of PHDs acting on HIF-1α require oxygen, iron, and 2-oxyglutarate as co-factors. Small molecules that block these enzymes are iron chelators, such as cobalt and desferrioxamine, or 2-oxyglutarate analogs such as L-mimosinc and 3,4 DHB, and DMOG. A schematic of the PHD enzyme and the structures of the 2-oxyglutarate analogs is reproduced in FIG. 5. A number of previous studies have shown an increase of VEGF and other HIF-1α target genes in cells treated with the small molecule PHD inhibitors selected here. Because the effects of the PHD inhibiting agents have not been tested in primary osteoblasts, studies were performed to evaluate their ability to increase HIF-1α. Osteoblasts were grown to near confluence, and then exposed to varying concentrations of cobalt chloride. At time zero, and after 3, 6, 12, and 24 hours of exposure, the cells were harvested and nuclear protein was extracted.

Row | SMILES | VEGF mRNA expression (real time PCR, β-actin as control) (VEGF) | VEGF mRNA expression (real time PCR, β-actin as control) (VEGF; listed as cobalt) | HIF-1α activation (HIF-1α [1]) | nuclear HIF-1α (Western blot of nuclear extracts) (HIF-1α [2])
1 | [Cl][Co][Cl] [cobalt chloride] | Marked upregulation of VEGF expression | Marked upregulation of VEGF was seen after 12 and 24 hours | increase HIF-1α activation in vitro and in vivo | time and dose dependent increase in nuclear HIF-1α; also recorded: increased nuclear accumulation after cobalt treatment at all doses
2 | CC(=O)N(O)CCCCCNC(=O)CCC(=O)N(O)CCCCCNC(=O)CCC(=O)N(O)CCCCCN [desferrioxamine] |  |  | increase HIF-1α activation in vitro and in vivo | 
